These results are taken from patent publication US7772246B2 (Pfizer Inc., priority 2007, dated 2010).

As a reminder, the IC50 is the midpoint of a concentration-inhibition curve.

In this assay the target is T1, b-Raf (Homo sapiens, UniProt P15056, V600E).
T1 construct: endogenous in cells; host or cells: A2058 human melanoma cells
The experiment in a line: Raf cellular assay (phospho-Mek1/2 ELISA in A2058 cells). In kind it is cell-based. The following applies: Table 3; human melanoma A2058 cells (b-Raf mutation), Mek1/2 Ser217/221 phosphorylation, 1 hour incubation; read-out: pMEK IC50. On the procedure: Compounds of the present invention were evaluated for potency against b-Raf using a cellular assay as follows. The activity of Raf kinases in cells is determined by measuring the level of phosphorylation of Mek1/2 at serine 217/221, the site phosphorylated by Raf kinases in vivo. Mek1/2 Ser phosphorylation is measured using anti-phospho-Mek1/2 antibodies (Cell Signaling #9121) in an ELISA format.
Healthy growing human melanoma A2058 cells (harboring a b-Raf mutation) are used for the assay. A2058 cells are grown in 10% FBS DMEM medium. When the cells are near 85%+confluence, the cells are rinsed with PBS once and trypsinized with trypsin/EDTA for 3 minutes. The cells are resuspended in 10% FBS DMEM and are centrifuged down at 1000 rpm for 5 minutes. The cells are resuspended in 10% FBS DMEM and counted on a cell counter. The cells are seeded at 50,000 cells/well in a volume of 100 μL/well in 10% FBS DMEM in a 96 well flat-bottom plate. The negative control wells receive only 100 μL of 10% FBS DMEM medium without cells. The plate is incubated overnight in a cell culture incubator with 5% CO2 at 37° C.
On day 2, testing compounds are prepared in 10% FBS DMEM medium and serially diluted at 1:3 for 11 test concentrations. Each concentration of the compounds is tested in duplicate. The compound solutions are added at 25 μL/well to the corresponding wells in the cell plate, and 25 μL/well of the vehicle (0.5% DMSO in 10% FBS DMEM) is added to the negative control wells (no cells) and the positive control wells (cells without compounds). The plate is incubated for 1 hour in a cell culture incubator with 5% CO2 at 37° C. After 1 hour of incubation, the medium is removed, 100 μL/well of cell lysis buffer is added into the cell plate, and the plate is shaken for 15 minutes at room temperature. After 15 minutes, the cell lysates are transferred to an ELISA plate (pre-coated with anti-Mek1 anti-body, Cell Signaling #2352), and the plate is incubated with gentle shaking for 2 hours at room temperature. After 2 hours, the contents of the wells are aspirated and the wells are washed 4 times with wash buffer. 100 μL of phospho-Mek1/2 detection antibody (Cell Signaling #9121) is added into each well and the plate is incubated with gentle shaking for 1 hour at room temperature. After 1 hour, the wells are aspirated and washed 4 times with wash buffer. 100 μL of anti-rabbit IgG HRP-linked antibody (Cell Signaling #7074) is added to each well, and the plate is incubated with gentle shaking for 1 hour at room temperature. After 1 hour, the contents of the wells are aspirated and the wells are washed 4 times with wash buffer. 100 μL of TMB substrate solution (Sigma #T0440) is added into each well, and the plate is incubated with gentle shaking at room temperature for 10 to 20 minutes. After color development, 100 μL of stop solution (1N hydrochloric acid) is added to each well to terminate color development. The plate is read at 450 nm on an ELISA plate reader.

T1 sequence (P15056 whole entry V600E): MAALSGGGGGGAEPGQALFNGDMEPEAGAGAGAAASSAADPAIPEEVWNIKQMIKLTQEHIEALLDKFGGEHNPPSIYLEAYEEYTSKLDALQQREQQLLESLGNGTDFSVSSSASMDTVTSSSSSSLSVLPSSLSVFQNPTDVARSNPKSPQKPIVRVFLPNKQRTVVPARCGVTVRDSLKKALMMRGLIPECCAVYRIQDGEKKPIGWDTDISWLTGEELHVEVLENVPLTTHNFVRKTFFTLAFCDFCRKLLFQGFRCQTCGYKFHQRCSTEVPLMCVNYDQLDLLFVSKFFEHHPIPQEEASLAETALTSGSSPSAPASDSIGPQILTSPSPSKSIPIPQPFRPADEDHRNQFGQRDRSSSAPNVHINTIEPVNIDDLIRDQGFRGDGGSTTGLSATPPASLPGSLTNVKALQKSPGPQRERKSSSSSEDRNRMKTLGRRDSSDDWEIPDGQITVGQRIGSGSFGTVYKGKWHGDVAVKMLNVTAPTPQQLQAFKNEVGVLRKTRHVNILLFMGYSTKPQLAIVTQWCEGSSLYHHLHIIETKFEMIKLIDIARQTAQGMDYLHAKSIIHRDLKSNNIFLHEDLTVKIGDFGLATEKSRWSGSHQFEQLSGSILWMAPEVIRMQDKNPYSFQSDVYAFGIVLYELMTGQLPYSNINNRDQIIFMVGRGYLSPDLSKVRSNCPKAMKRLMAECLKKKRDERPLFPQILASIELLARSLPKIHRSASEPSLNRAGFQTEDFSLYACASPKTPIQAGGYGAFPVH

Turning to `COc1cncc(-c2nn(C(C)(C)CO)cc2-c2ccnc(NCCC#N)n2)c1` [Example B-49, 3-(4-(1-(1-hydroxy-2-methylpropan-2-yl)-3-(5-methoxypyridin-3-yl)-1H-pyrazol-4-yl)pyrimidin-2-ylamino)propanenitrile], the 50% inhibitory concentration (IC50) was 22.4 nM.

Turning to `Cc1n[nH]c2ncc(-c3nn(C(C)(C)C)cc3-c3ccnc(NCCC#N)n3)cc12` [Example B-71, 3-({4-[1-tert-butyl-3-(3-methyl-1H-pyrazolo[3,4-b]pyridin-5-yl)-1H-pyrazol-4-yl]pyrimidin-2-yl}amino)propanenitrile], the IC50 worked out at 2.8 nM.

For `COc1cc(-c2nn(-c3ccc(C#N)cc3)cc2-c2ccnc(NCCO)n2)cnc1N` [Example B-80, 4-[3-(6-amino-5-methoxypyridin-3-yl)-4-{2-[(2-hydroxyethyl)-amino]pyrimidin-4-yl}-1H-pyrazol-1-yl]-benzonitrile], the IC50 is 95.3 nM.

On to `Cc1n[nH]c2ncc(-c3nn(CC(F)F)cc3-c3ccnc(NCCC#N)n3)cc12` [Example B-91, 3-(4-(1-(2,2-difluoroethyl)-3-(3-methyl-1H-pyrazolo[3,4-b]pyridin-5-yl)-1H-pyrazol-4-yl)pyrimidin-2-ylamino)propanenitrile], for which the concentration for half-maximal inhibition (IC50) turned out to be 4.94 nM.

For the compound `Cc1cc(-c2nn(CC(F)F)cc2-c2ccnc(NCCC#N)n2)cnc1N` [Example G-7, 3-(4-(3-(6-amino-5-methylpyridin-3-yl)-1-(2,2-difluoroethyl)-1H-pyrazol-4-yl)pyrimidin-2-ylamino)-propanenitrile], the IC50 came to 28.5 nM.

As for `Cc1n[nH]c2ncc(-c3nn(C(C)C)cc3-c3ccnc(NCCC#N)n3)cc12` [Example B-51, 3-({4-[1-isopropyl-3-(3-methyl-1H-pyrazolo[3,4-b]pyridin-5-yl)-1H-pyrazol-4-yl]pyrimidin-2-yl}amino)propanenitrile], the IC50 stood at 11 nM.

In the case of `Nc1nccc(-c2cn(C(F)F)nc2-c2cnc3[nH]cc(Cl)c3c2)n1` [Example B-43, 4-[3-(3-chloro-1H-pyrrolo[2,3-b]pyridin-5-yl)-1-(difluoromethyl)-1H-pyrazol-4-yl]pyrimidin-2-amine], the 50% inhibitory concentration (IC50) amounted to 44.1 nM.

`N#CCCNc1nccc(-c2cn(CC(F)F)nc2-c2cnc3cc[nH]c3c2)n1` [Example B-36, 3-({4-[1-(2,2-difluoroethyl)-3-(1H-pyrrolo[3,2-b]pyridin-6-yl)-1H-pyrazol-4-yl]pyrimidin-2-yl}amino)propanenitrile]: the IC50 is 458 nM.

In the case of `N#CCCNc1nccc(-c2cn(CC(F)F)nc2-c2cnc3[nH]ccc3c2)n1` [Example B-33, 3-({4-[1-(2,2-difluoroethyl)-3-(1H-pyrrolo[2,3-b]pyridin-5-yl)-1H-pyrazol-4-yl]pyrimidin-2-yl}amino)propanenitrile], the IC50 stood at 4.48 nM.

Turning to `CC(=O)c1cc(-c2nn(C(C)C)cc2-c2ccnc(NCCC#N)n2)cnc1N` [Example B-52, 3-({4-[3-(5-acetyl-6-aminopyridin-3-yl)-1-isopropyl-1H-pyrazol-4-yl]pyrimidin-2-yl}amino)propanenitrile], the IC50 worked out at 9.3 nM.

With `C[C@H](O)CNc1nccc(-c2cn(CC(F)F)nc2-c2ccnc3[nH]ccc23)n1` [Example B-29, (2S)-1-({4-[1-(2,2-difluoroethyl)-3-(1H-pyrrolo[2,3-b]pyridin-4-yl)-1H-pyrazol-4-yl]pyrimidin-2-yl}amino)propan-2-ol], the IC50 was 9390 nM.

For the compound `C[C@H](O)CNc1nccc(-c2cn([C@H]3C[C@H](F)C3)nc2-c2cnc3[nH]cc(Cl)c3c2)n1` [Example B-86, (S)-1-(4-(3-(3-chloro-1H-pyrrolo[2,3-b]pyridin-5-yl)-1-((1r,3r)-3-fluorocyclobutyl)-1H-pyrazol-4-yl)pyrimidin-2-ylamino)propan-2-ol], the IC50 turned out to be 30.6 nM.

On to `Cc1ccc(-c2nn(CC(F)F)cc2-c2ccnc(NCCC#N)n2)cn1` [Example B-28, 3-({4-[1-(2,2-difluoroethyl)-3-(6-methylpyridin-3-yl)-1H-pyrazol-4-yl]pyrimidin-2-yl}amino)propanenitrile], for which the half-inhibitory concentration (IC50) worked out at 538 nM.

Consider `C[C@H](O)CNc1nccc(-c2cn(C3COC3)nc2-c2cnc3[nH]cc(Cl)c3c2)n1` [Example B-99, (2S)-1-({4-[3-(3-chloro-1H-pyrrolo[2,3-b]pyridin-5-yl)-1-oxetan-3-yl-1H-pyrazol-4-yl]pyrimidin-2-yl}amino)propan-2-ol], for which the half-inhibitory concentration (IC50) was 235 nM.

Turning to `CC(C)n1cc(-c2ccnc(NCCC#N)n2)c(-c2cnc3[nH]ccc3c2)n1` [Example B-50, 3-({4-[1-isopropyl-3-(1H-pyrrolo[2,3-b]pyridin-5-yl)-1H-pyrazol-4-yl]pyrimidin-2-yl}amino)-propanenitrile], the 50% inhibitory concentration (IC50) is 7.29 nM.

With `COc1cncc(-c2nn([C@@H]3CCOC3)cc2-c2ccnc(NCCC#N)n2)c1` [Example B-73, 3-[(4-{3-(5-methoxypyridin-3-yl)-1-[(3R)-tetrahydrofuran-3-yl]-1H-pyrazol-4-yl}pyrimidin-2-yl)amino]propanenitrile], the IC50 was 63.5 nM.

`N#CCCNc1nccc(-c2cn(CC(F)F)nc2-c2cnc3[nH]cc(F)c3c2)n1` [Example B-21, 3-({4-[1-(2,2-difluoroethyl)-3-(3-fluoro-1H-pyrrolo[2,3-b]pyridin-5-yl)-1H-pyrazol-4-yl]pyrimidin-2-yl}amino)propanenitrile]: the concentration for half-maximal inhibition (IC50) turned out to be 1.95 nM.

For the compound `COc1nc(-c2nn(C(C)C)cc2-c2ccnc(NCCC#N)n2)cnc1N` [Example B-31, 3-({4-[3-(5-amino-6-methoxypyrazin-2-yl)-1-isopropyl-1H-pyrazol-4-yl]pyrimidin-2-yl}amino)propanenitrile], the IC50 stood at 0.5 nM.

In the case of `Cc1c[nH]c2ncc(-c3nn(CC(F)F)cc3-c3ccnc(N)n3)cc12` [Example B-108, 4-[1-(2,2-difluoroethyl)-3-(3-methyl-1H-pyrrolo[2,3-b]pyridin-5-yl)-1H-pyrazol-4-yl]pyrimidin-2-amine], the half-maximal inhibitory concentration (IC50) was found to be 11.2 nM.

In the case of `COc1cc(-c2nn(CC(F)F)cc2-c2ccnc(NCCC#N)n2)cnc1N` [Example B-82, 3-(4-(3-(6-amino-5-methoxypyridin-3-yl)-1-(2,2-difluoroethyl)-1H-pyrazol-4-yl)pyrimidin-2-ylamino)propanenitrile], the IC50 came to 0.627 nM.

For the compound `CC(=O)N1CCC(n2cc(-c3ccnc(NCC(F)F)n3)c(-c3cnc4[nH]cc(Cl)c4c3)n2)CC1` [Example B-67, 4-[1-(1-acetylpiperidin-4-yl)-3-(3-chloro-1H-pyrrolo[2,3-b]pyridin-5-yl)-1H-pyrazol-4-yl]-N-(2,2-difluoroethyl)-pyrimidin-2-amine], the half-inhibitory concentration (IC50) was 9.2 nM.

Consider `CC(C)(CO)n1cc(-c2ccnc(NCCC#N)n2)c(-c2cnc3c(c2)CCN3)n1` [Example B-22, 3-({4-[3-(2,3-dihydro-1H-pyrrolo[2,3-b]pyridin-5-yl)-1-(2-hydroxy-1,1-dimethylethyl)-1H-pyrazol-4-yl]pyrimidin-2-yl}amino)propanenitrile], for which the IC50 was 26.3 nM.

Take `CN1CCC(n2cc(-c3ccncn3)c(-c3cnc4[nH]cc(Cl)c4c3)n2)CC1` [Example F-2, 3-chloro-5-[1-(1-methylpiperidin-4-yl)-4-pyrimidin-4-yl-1H-pyrazol-3-yl]-1H-pyrrolo[2,3-b]pyridine]: the IC50 amounted to 196 nM.
